The values that follow come from ChEMBL document CHEMBL3621180, “Isolation of two new bioactive sesquiterpene lactone glycosides from the roots of Ixeris dentata” (Bioorg Med Chem Lett, 2015).

The nature of series [1]: Antiinflammatory activity in […] BV2 cells assessed as inhibition of lipopolysaccharide-induced nitric oxide production at 5 uM incubated for 24 hrs by Griess reagent based assay (reference value: 20.3 +/- 0.1 uM). The series is classed as functional, BV-2. (Griess reagent forms a coloured azo dye with nitrite.)
Series [2] can be described thus: Antiinflammatory activity in […] BV2 cells assessed as inhibition of lipopolysaccharide-induced nitric oxide production at 20 uM incubated for 24 hrs by Griess reagent based assay (reference value: 20.3 +/- 0.1 uM). The series is classed as functional, BV-2.
The nature of series [3]: Cytotoxic activity against […] BV2 cells assessed as cell viability at 5 uM incubated for 24 hrs by MTT assay (reference value: 100%). Format: cell-based, BV-2. Conditions: read-out: Activity. For orientation: Formazan colour is commonly taken as a measure of viable cells.
Series [4] in a line: Cytotoxic activity against […] BV2 cells assessed as cell viability at 20 uM incubated for 24 hrs by MTT assay (reference value: 100%). As to conditions: mouse, read-out: Activity. The series is classed as cell-based, BV-2.

`CC1=CC[C@@H](O[C@@H]2O[C@H](CO)[C@@H](O)[C@H](O)[C@H]2O)[C@]2(C)CC[C@@H]3[C@H](OC(=O)[C@H]3C)[C@@H]12`: the Activity in series [1] came out at 18.9 µM; in series [2], 18.4 µM. Also, in series [3], the viability at 24 h, 5 µM is 107%. In addition, the viability at 24 h, 20 µM in series [4] was 112%.

For the compound `C=C1[C@@H]2[C@H]3OC(=O)[C@@H](C)[C@@H]3C[C@@H](O)C(=C)[C@@H]2C[C@@H]1O[C@@H]1O[C@H](CO)[C@@H](O)[C@H](O)[C@H]1O`, the Activity amounted to 18.6 µM in series [1] and 17.5 µM in series [2]. In series [3], the viability at 24 h, 5 µM is 102%. Further, the viability at 24 h, 20 µM in series [4] stood at 114%.

Regarding `C=C1C(=O)O[C@@H]2/C=C(\CO[C@@H]3O[C@H](CO)[C@@H](O)[C@H](O)[C@H]3O)CC/C=C(\C)CC[C@@H]12`, the Activity in series [1] came to 20.1 µM; in series [2], 18 µM. Further, the viability at 24 h, 5 µM in series [3] worked out at 105%. For the same compound, in series [4], the viability at 24 h, 20 µM was determined as 103%.

In the case of `C=C1[C@@H]2[C@H]3OC(=O)C(=C)[C@@H]3C[C@@H](O)C(=C)[C@@H]2C[C@@H]1O[C@@H]1O[C@H](CO)[C@@H](O)[C@H](O)[C@H]1O`, the Activity in series [1] was 19.7 µM; in series [2], 18.7 µM. For the same compound, the viability at 24 h, 5 µM in series [3] turned out to be 110%. Also, the viability at 24 h, 20 µM in series [4] was 110%.

Turning to `C=C1C(=O)O[C@@H]2[C@H]3C(C)=C(O[C@@H]4O[C@H](CO)[C@@H](O)[C@H](O)[C@H]4O)C[C@H]3C(=C)C[C@@H](OC(=O)Cc3ccc(O)cc3)[C@@H]12`, the Activity in series [1] worked out at 18.2 µM; in series [2], 9.3 µM. The viability at 24 h, 5 µM in series [3] amounted to 106%. Also, in series [4], the viability at 24 h, 20 µM was determined as 103%.

Turning to `C=C1C(=O)O[C@@H]2[C@H]3C(=C)[C@@H](O[C@@H]4O[C@H](CO)[C@@H](O)[C@H](O)[C@H]4O)C[C@H]3C(=C)C[C@@H](OC(=O)C(O)C(C)C)[C@@H]12` (stereo not given in full), the Activity in series [1] stood at 21.5 µM; in series [2] it was 18.2 µM. Further, in series [3], the viability at 24 h, 5 µM was 105%. For the same compound, the viability at 24 h, 20 µM in series [4] came out at 97.5%.

With `C=C1[C@@H]2[C@H]3OC(=O)[C@@H](C)[C@@H]3CCC(=C)[C@@H]2C[C@@H]1O[C@@H]1O[C@H](CO)[C@@H](O)[C@H](O)[C@H]1O`, the Activity in series [1] stood at 19.9 µM; in series [2] it was 18.2 µM. Also, the viability at 24 h, 5 µM in series [3] amounted to 116%. Further, the viability at 24 h, 20 µM in series [4] came to 116%.

For `C=C1C(=O)O[C@@H]2[C@H]3C(=C)[C@@H](O[C@@H]4O[C@H](CO)[C@@H](O)[C@H](O)[C@H]4O)C[C@H]3C(=C)C[C@@H](OC(=O)Cc3ccc(O)cc3)[C@@H]12`, the Activity worked out at 20.3 µM in series [1] and 16.3 µM in series [2]. Further, the viability at 24 h, 5 µM in series [3] came out at 106%. In series [4], the viability at 24 h, 20 µM was found to be 109%.

As to `C/C1=C\CC/C(CO[C@@H]2O[C@H](CO)[C@@H](O)[C@H](O)[C@H]2O)=C/[C@H]2OC(=O)[C@@H](C)[C@@H]2CC1`, the Activity in series [1] stood at 19.6 µM; in series [2], 18.8 µM. Further, the viability at 24 h, 5 µM in series [3] is 113%. Also, in series [4], the viability at 24 h, 20 µM was 107%.

As to `C=C1C(=O)O[C@@H]2[C@H]3C(=C)[C@@H](O[C@@H]4O[C@H](CO)[C@@H](O)[C@H](O)[C@H]4O)C[C@H]3C(=C)C[C@@H](O)[C@@H]12`, the Activity in series [1] was 19.8 µM; in series [2] it was 17.6 µM. In series [3], the viability at 24 h, 5 µM turned out to be 104%. Besides, the viability at 24 h, 20 µM in series [4] turned out to be 103%.

Regarding `C=C1C[C@@H](O)[C@@H]2[C@H](OC(=O)[C@H]2C)[C@H]2C(C)=C(O[C@@H]3O[C@H](CO)[C@@H](O)[C@H](O)[C@H]3O)C[C@@H]12`, the Activity stood at 19.9 µM in series [1] and 17.2 µM in series [2]. Further, the viability at 24 h, 5 µM in series [3] amounted to 108%. Further, the viability at 24 h, 20 µM in series [4] came to 108%.

Take `CC1=C2[C@H]3OC(=O)[C@@H](C)[C@@H]3CC[C@@]2(C)[C@H](O)CC1`: the Activity in series [1] amounted to 17.9 µM; in series [2] it was 17.7 µM. Besides, in series [3], the viability at 24 h, 5 µM came out at 110%. Besides, in series [4], the viability at 24 h, 20 µM is 110%.

For `CNC(=N)NCCC[C@H](N)C(=O)O` [TILARGININE], the Activity in series [1] is 20.1 µM; in series [2], 14.1 µM. Further, in series [3], the viability at 24 h, 5 µM was found to be 112%. For the same compound, the viability at 24 h, 20 µM in series [4] worked out at 108%.

`C=C1C[C@@H](O)[C@@H]2[C@H](OC(=O)[C@H]2C)[C@H]2[C@H](C)[C@@H](O[C@@H]3O[C@H](CO)[C@@H](O)[C@H](O)[C@H]3O)C[C@@H]12`: the Activity in series [1] is 19.6 µM; in series [2] it was 19.4 µM. Besides, the viability at 24 h, 5 µM in series [3] worked out at 103%. For the same compound, in series [4], the viability at 24 h, 20 µM came to 103%.

`C=C1[C@@H]2[C@H]3OC(=O)[C@@H](C)[C@@H]3[C@H](O)CC(=C)[C@@H]2C[C@@H]1O[C@@H]1O[C@H](CO)[C@@H](O)[C@H](O)[C@H]1O`: the Activity in series [1] came to 20.4 µM; in series [2], 18 µM. In addition, the viability at 24 h, 5 µM in series [3] is 106%. For the same compound, in series [4], the viability at 24 h, 20 µM is 105%.
